# Measured values from ChEMBL document CHEMBL4715865, “Antimyeloma Potential of Caffeic Acid Phenethyl Ester and Its Analogues through Sp1 Mediated Downregulation of IKZF1-IRF4-MYC Axis” (J Nat Prod, 2020).
# Active and inactive are the calls of the source. The calls are words filed in the database; no cut-off is given here.
# Key:
# KMM-1 [1] = experiment: (§1) Growth inhibition of human KMM-1 cells at 10 uM after 48 hrs by PrestoBlue cell viability assay relative to control; type: functional
# MM.1R [2] = experiment: Down regulation of MYC protein expression in human MM1.R cells at 10 uM after 48 hrs by immunoblotting analysis; type: functional, cell-based
# [3] = Growth inhibition of human KMM-1 cells after 48 hrs by PrestoBlue cell viability assay; type: functional, cell-based; conditions: KMM-1, 48 h
# MM.1R [4] = experiment: Induction of apoptosis in human MM1.R cells assessed as increase in cleaved caspace-8 protein expression at 10 uM after 48 hrs by immunoblotting analysis; type: functional, cell-based
# JJN-3 [5] = experiment: Growth inhibition of human JJN-3 cells after 48 hrs by PrestoBlue cell viability assay; type: functional, cell-based; conditions: JJN-3, 48 h
# [6] = Growth inhibition of human MM1.R cells after 48 hrs by PrestoBlue cell viability assay; type: functional; conditions: MM.1R
# MM.1R [7] = experiment: Down regulation of SP1 protein expression in human MM1.R cells at 10 uM after 48 hrs by immunoblotting analysis; type: functional, cell-based
# [8] = Potency index, ratio of lenalidomide IC50 to test compound IC50 for growth inhibition of human KMM-1 cells; type: functional
# [9] = Induction of apoptosis in human KMM-1 cells assessed as increase in cleaved caspace-3 expression at 50 uM after 48 hrs by immunoblotting analysis; type: functional
# KMM-1 [10] = experiment: Growth inhibition of human KMM-1 cells at 1 to 10 uM after 48 hrs by PrestoBlue cell viability assay; type: functional, cell-based; conditions: dose 1-10 µM
# [11] = Induction of apoptosis in human KMM-1 cells assessed as apoptotic cells at 10 uM after 72 hrs by Annexin V/PropidiumIodide staining based flow cytometric analysis relative to control; type: functional
# [12] = Induction of apoptosis in human KMM-1 cells assessed as early apoptotic cells at 10 uM after 72 hrs by Annexin V/PropidiumIodide staining based flow cytometric analysis (reference value: 1 +/- 0.4%); type: functional
# [13] = Induction of apoptosis in human KMM-1 cells assessed as necrotic cells at 10 uM after 72 hrs by Annexin V/PropidiumIodide staining based flow cytometric analysis (reference value: 8 +/-1%); type: functional
# [14] = Cytotoxicity against human Mononuclear cells assessed as reduction in cll viability at 10 uM after 48 hrs by PrestoBlue cell viability assay; type: cell-based; conditions: mononuclear cell line
# [15] = as §1; type: functional; conditions: read-out: GI
# [16] = Induction of apoptosis in human KMM-1 cells assessed as late apoptotic cells at 10 uM after 72 hrs by Annexin V/PropidiumIodide staining based flow cytometric analysis (reference value: 4 +/- 0.5%); type: functional
# [17] = Growth inhibition of human KMM-1 cells at 10 to 100 uM after 72 hrs by PrestoBlue cell viability assay relative to control; type: functional; conditions: dose 10-100 µM
# MM.1R [18] = experiment: Down regulation of IKZF3 protein expression in human MM1.R cells at 10 to 50 uM after 48 hrs by immunoblotting analysis; type: functional, cell-based; conditions: dose 10-50 µM
# JJN-3 [19] = experiment: Down regulation of IKZF1 protein expression in human JJN-3 cells at 10 to 50 uM after 48 hrs by immunoblotting analysis; type: functional, cell-based; conditions: dose 10-50 µM
# JJN-3 [20] = experiment: Down regulation of IRF4 protein expression in human JJN-3 cells at 10 to 50 uM after 48 hrs by immunoblotting analysis; type: functional, cell-based; conditions: dose 10-50 µM
# [21] = Growth inhibition of human MM1.R cells at 100 uM after 48 hrs by PrestoBlue cell viability assay relative to control; type: functional; conditions: MM.1R, read-out: GI
# MM.1R [22] = experiment: Down regulation of IKZF1 protein expression in human MM1.R cells at 10 to 50 uM after 48 hrs by immunoblotting analysis; type: functional, cell-based; conditions: dose 10-50 µM
# [23] = Induction of apoptosis in human MM1.R cells assessed as apoptotic cells at 10 uM after 72 hrs by Annexin V/PropidiumIodide staining based flow cytometric analysis relative to control; type: functional, MM.1R
# [24] = Induction of apoptosis in human KMM-1 cells assessed as viable cells at 10 uM after 72 hrs by Annexin V/PropidiumIodide staining based flow cytometric analysis (reference value: 87 +/- 1%); type: functional; conditions: read-out: Activity
# B cell [25] = experiment: Cytotoxicity against human naive B cells assessed as reduction in cll viability at 10 uM after 48 hrs by PrestoBlue cell viability assay; type: cell-based
# MM.1R [26] = experiment: Down regulation of IRF4 protein expression in human MM1.R cells at 10 to 50 uM after 48 hrs by immunoblotting analysis; type: functional, cell-based; conditions: dose 10-50 µM
# [27] = Growth inhibition of human KMM-1 cells at 25 uM after 48 hrs by PrestoBlue cell viability assay relative to control; type: functional; conditions: read-out: GI
# [28] = Cytotoxicity against human Mononuclear cells assessed as reduction in cll viability at 25 to 50 uM after 48 hrs by PrestoBlue cell viability assay; type: cell-based; conditions: mononuclear cell line, dose 25-50 µM
# MM.1R [29] = experiment: Induction of apoptosis in human MM1.R cells assessed as increase in cleaved caspace-8 protein expression at 5 to 25 uM after 48 hrs by immunoblotting analysis; type: functional, cell-based; conditions: dose 5-25 µM
# IMR-32 = experiment: Cytotoxicity against human IMR-32 cells assessed as reduction in cell viability after 48 hrs by MTT assay; type: functional, cell-based; conditions: IMR-32, 48 h
# JJN-3 [30] = experiment: Down regulation of SP1 protein expression in human JJN-3 cells at 10 uM after 48 hrs by immunoblotting analysis; type: functional, cell-based
# [31] = Induction of apoptosis in human KMM-1 cells assessed as necrotic cells at 25 uM after 72 hrs by Annexin V/PropidiumIodide staining based flow cytometric analysis (reference value: 8 +/-1%); type: functional
# B cell [32] = experiment: Cytotoxicity against human naive B cells assessed as reduction in cll viability at 25 to 50 uM after 48 hrs by PrestoBlue cell viability assay; type: cell-based; conditions: dose 25-50 µM
# [33] = Growth inhibition of human KMM-1 cells at 50 uM after 48 hrs by PrestoBlue cell viability assay relative to control; type: functional; conditions: read-out: GI
# [34] = Induction of apoptosis in human KMM-1 cells assessed as early apoptotic cells at 25 uM after 72 hrs by Annexin V/PropidiumIodide staining based flow cytometric analysis (reference value: 1 +/- 0.4%); type: functional
# A549 = experiment: Cytotoxicity against human A549 cells assessed as reduction in cell viability after 48 hrs by MTT assay; type: functional, cell-based; conditions: A549, 48 h
# [35] = Down regulation of IRF4 protein expression in human KMM-1 cells at 50 uM incubated for 48 hrs by 48 hrs by immunoblotting analysis relative to control; type: functional
# KMM-1 [36] = experiment: Growth inhibition of human KMM-1 cells assessed as induction morphological changes at 25 to 50 uM after 48 hrs by phase contrast microscopic method; type: functional, cell-based; conditions: dose 25-50 µM
# KMM-1 [37] = experiment: Down regulation of IRF4 mRNA expression in human KMM-1 cells at 50 uM incubated for 48 hrs by 48 hrs by RT-PCR analysis; type: functional, cell-based
# KMM-1 [38] = experiment: Growth inhibition of human KMM-1 cells at 1 to 100 uM after 72 hrs by PrestoBlue cell viability assay; type: functional, cell-based; conditions: dose 1-100 µM
# [39] = Induction of apoptosis in human KMM-1 cells assessed as viable cells at 25 uM after 72 hrs by Annexin V/PropidiumIodide staining based flow cytometric analysis (reference value: 87 +/- 1%); type: functional; conditions: read-out: Activity
# [40] = Induction of apoptosis in human KMM-1 cells assessed as late apoptotic cells at 25 uM after 72 hrs by Annexin V/PropidiumIodide staining based flow cytometric analysis (reference value: 4 +/- 0.5%); type: functional
compound,measurement,setting,value
COc1cc(/C=C/C(=O)OCCCc2ccccc2)cc(OC)c1O,growth inhibition (GI),KMM-1 [1],inactive
Oc1ccc(/C=C/COCCCc2ccccc2)cc1O,Activity,MM.1R [2],inactive
same,IC50,[3],6.6 µM
same,Activity,MM.1R [4],Active
same,IC50,JJN-3 [5],14 µM
same,IC50,[6],2 µM
same,Activity,MM.1R [7],inactive
same,Ratio IC50,[8],6.5
COc1cc(/C=C/C(=O)OCCc2ccccc2)cc(OC)c1O,growth inhibition (GI),KMM-1 [1],inactive
O=C(/C=C/c1ccc(O)c(O)c1)OCCC1CCCCC1,fold change (FC),[9],3.2
same,growth inhibition (GI),KMM-1 [10],Active
Nc1cccc2c1CN(C1CCC(=O)NC1=O)C2=O (stereo not given) [LENALIDOMIDE],Activity,[11],17.4%
same,Activity,[12],4%
same,Activity,[13],12%
same,Activity,[14],Non-Toxic
same,inhibition of growth at 10 µM,[15],7.5%
same,Activity,[16],6%
same,growth inhibition (GI),[17],>25%
same,Activity,MM.1R [18],inactive
same,Activity,JJN-3 [19],Active
same,Activity,JJN-3 [20],Active
same,inhibition of growth at 100 µM,[21],47%
same,Activity,MM.1R [22],Active
same,Activity,[23],46%
same,viability at 10 µM,[24],78%
same,Activity,B cell [25],Non-Toxic
same,Activity,MM.1R [26],inactive
O=C(/C=C/c1ccc(O)c(O)c1)OCCc1ccccc1 [CAFFEIC ACID PHENETHYL ESTER],Activity,[11],25.8%
same,Activity,[12],3%
same,inhibition of growth at 25 µM,[27],38.7%
same,Activity,[13],17%
same,Activity,[28],Non-Toxic
same,Activity,MM.1R [29],Active
same,IC50,IMR-32,5 µM
same,Activity,JJN-3 [30],Active
same,Activity,[31],31%
same,Activity,B cell [32],Non-Toxic
same,IC50,[3],37.5 µM
same,inhibition of growth at 50 µM,[33],59%
same,Activity,[16],9%
same,Activity,[34],4%
same,IC50,A549,80 µM
same,Activity,[35],26%
same,growth inhibition (GI),KMM-1 [36],Active
same,Activity,KMM-1 [37],Active
same,growth inhibition (GI),KMM-1 [10],Active
same,IC50,JJN-3 [5],30 µM
same,growth inhibition (GI),KMM-1 [38],Active
same,Activity,[23],41%
same,viability at 25 µM,[39],51%
same,viability at 10 µM,[24],71%
same,IC50,[6],17.8 µM
same,Activity,[40],15%
same,Activity,MM.1R [7],Active
COc1cc(/C=C/C(=O)OCCc2ccccc2)ccc1O,growth inhibition (GI),KMM-1 [1],inactive
